Consider three compounds from patent publication US10980769B2, “Tiglien-3-one derivatives” (QBIOTICS PTY LTD, priority 2005, dated 2021).

In one assay the test system is Trichophyton rubrum. As to the kind of experiment: MycoTOX (Tr) antifungal bioassay. It counts as cell-based. As for the experimental part:
MycoTOX (alternatively referred to herein as Tr) is a non-chromogenic bioassay used to detect activity against filamentous fungal pathogens of plants and animals. The bioassay features a solid phase agar base into which the test compound has been incorporated. As the growth patterns of filamentous fungi are readily apparent on the agar surface the extent of mycelial growth, sporulation (if relevant to the species under investigation) and colour changes with maturation are measured.
MycoTOX, involves a fungus (spore suspension or mycelial fragments) being applied to the surface of an agar matrix containing the test chemical and allowed to grow for a period of up to a week (depending on species). The assay is monitored at two discrete times to identify key development phases in the life cycle (for example mycelial growth and extent of sporulation) and the active wells noted. The monitoring times are dependent on the fungal species under investigation.
The MycoTOX assays were carried out using Trichophyton rubrum. The MycoTOX test is alternatively referred to as Tr to indicate the use of Trichophyton rubrum.

For the next assay, the system named is fly eggs. The assay is described as follows: DipteraTOX fly development bioassay. The arrangement: key: A value of A in DipG, Dip P or Dip H represents very active; a value of P represents active. The conditions noted are these: 250 μg per mL in agar. As for the experimental part: DipteraTOX is referred to herein as DipG, DipP and DipH. DipG represents no grazing of larva. DipP represents no pupae formation and Dip H represents no hatching of flies. A value of A in DipG, Dip P or Dip H represents very active and a value of P represents active. In DipteraTox the fly eggs were applied to the surface of an agar matrix containing 250 μg per mL of the test chemical and allowed to hatch, develop and pupate for a period up of two weeks. The assay was monitored at two discrete times to determine the extent of grazing of the agar matrix at Week 1 and the presence of adult flies at Week 2.

Another assay has as its system PKC. The assay is described as follows: PKC activation in cultured tumour cells (scattering and growth inhibition of MCF7). Format: cell-based, human. The conditions noted are these: defined by scattering and growth inhibition of MCF7 breast cancer cells.
The test system of another assay is Giardia spp. As to the kind of experiment: TriTOX (Gi) anti-protozoan bioassay. Format: cell-based. As for the experimental part:
is a microtitre plate based chromogenic bioassay for the screening of anti-protozoan activity of pathogenic, anaerobic/microaerophilic protozoans for example Giardia spp. and Trichomonas spp. The bioassays are run under anaerobic conditions and features species specific chromogens. The minimum inhibitory concentrations (approximate LD99) are determined by the following method: stock solutions of the unknowns are serially diluted ½ to give 12 concentrations over a 2,048-fold range. Aliquots of each concentration(s) are applied to the wells of 96-well microtitre plates and diluted with media. […] The lowest concentration at which the compound is active is noted as the minimum inhibitory concentration (MIC). Additionally, microscopic inspection is carried out to identify any patterns of morphological change that may be consistent with a type of toxicity and therefore mode of action. Giardia spp. was utilized for this assay.

Assay [1] relates to normal human fibroblasts (NFF). The assay is described as follows: Growth inhibition of cultured cells. Format: cell-based. The method, then: (§1) Briefly, a range of tumour cells including mouse melanoma, human melanoma, mouse squamous cell carcinoma, human breast, human colon, human leukemia and human lung and normal human cells including normal human fibroblasts were seeded at 2-5,000 per microtitre well (96-well plate) in 10% FCS-RPMI 1640 culture medium, treated, and allowed to grow until the controls were nearly confluent (5-6 days). The wells were then washed twice with PBS, fix with ethanol for a minimum of 5 minutes and washed with water. SRB solution (50 μL of 0.4% in 1% acetic acid) was added and left at room temperature for a minimum of 15 minutes. The plate was washed rapidly with tap water and then twice with 1% acetic acid. After addition of 100 μL/well of 10 mM Tris base (unbuffered, pH>9), plates were left for a minimum of 5 minutes, then the absorbance was read at 564 nm on the ELISA reader, with a 3 second prior shaking. After subtraction of a blank (wells with no cells, absorbance typically about 0.04), growth inhibition was calculated as % of the untreated control and plotted against dose.
(§2) Briefly, a suspension of a range of tumour cells including mouse melanoma, human melanoma, mouse squamous cell carcinoma, human breast, human colon, human leukemia and human lung and normal human cells including normal human fibroblasts were seeded into round-bottom microtitre plates in 10% FCS-RPMI 1640 culture medium, treated and allowed to grow for 5-6 days. To measure cell growth, 20 μL of a combined MTS/PMS solution (Promega Cell ProliferationAssay Kit Cat #G5430) was added to each well of the 96 well assay plate. After 1-4 hours the plates were placed in the ELISA plate reader and the absorbance read at 490 nm. After subtraction of a blank (wells with no cells, absorbance typically about 0.4), growth inhibition was calculated as % of the untreated control and plotted against dose.
(§3) For growth inhibition assays, cells (2000-5000/well) were seeded in 96-well plates in duplicate, treated with drug next day and allowed to grow for a further 5-6 days. The plates were then washed in PBS (phosphate buffered saline, pH 7.2), fixed with ethanol and stained by addition of 50 μL 0.4% SRB (sulforhodamine) in 1% acetic acid. The plate was left at room temperature for a minimum of 15 minutes, then washed rapidly with tap water and then twice with 1% acetic acid. After addition of 100 μL/well of 10 mM Tris base (unbuffered, pH>9), plates were left for a minimum of 5 minutes, then the absorbance was read at 564 nm on the ELISA reader, with a 3 second prior shaking. After subtraction of a blank (wells with no cells, typically about 0.04), growth inhibition was calculated as % of the untreated control and plotted against dose.

In a further assay the test system is human breast MCF-7. The assay is described as follows: Growth inhibition of cultured cells. Format: cell-based. The conditions noted are these: human breast MCF-7. The method, then:
as §1, §2, §3

A further assay concerns human leukemia K562. As to the kind of experiment: Growth inhibition of cultured cells. Format: cell-based. The method, then: as §1, §2, §3
The subject of another assay is Haemonchus contortus. As to the kind of experiment: NemaTOX (Ne) anthelmintic larval development bioassay. As for the experimental part: NemaTOX (alternatively referred to herein as Ne) is an anthelmintic bioassay, applicable to all parasitic nematodes with free-living life cycle stages, and can be used as a screen to detect activity and define the species spectrum of compounds against parasitic nematodes and examine the impact of pre-existing resistance to other anthelmintic classes on potency. Haemonchus contortus was utilised for this assay.
The effect on larval development was determined in this assay by the method described by Gill et al. (1995) Int. J. Parasitol. 25: 463-470. Briefly, in this assay nematode eggs were applied to the surface of an agar matrix containing the test sample and allowed to develop through to the L3, infective stage (6 days). At this time the stage of larval development reached and any unusual features (deformity, paralysis, toxicity) were noted by microscopic examination.

The next assay deals with Bacillus subtilis. As to the kind of experiment: ProTOX (Bs) antibacterial bioassay. It counts as cell-based. The source says:
ProTOX, (alternatively referred to herein as Bs) is an antibacterial bioassay, broadly applicable to most aerobic and anaerobic bacteria. The bioassay features a solid phase agar base into which the test compound has been incorporated together with a chromogen. As the bacteria multiply in the well, the chromogen is metabolised from blue in a two-step process to a colourless compound. Compounds with potent bactericidal activity inhibit bacterial metabolism of the chromogen while bacteriostatic compounds induce limited metabolism as indicated by an intermediate pink colour. ProTOX is broadly applicable to a range of gram-positive and gram-negative bacteria under aerobic and microaerophilic conditions. ProTOX assays were carried out using Bacillus subtilis.
Briefly, in ProTOX, the bacteria (24 hour broth) were applied to the surface of an agar matrix containing the test sample and allowed to grow for 48 hours. The assay was monitored at 24 and 48 hours and the active wells noted. Known antibiotics yield consistent colour transitions which are concentration and time dependent. These patterns provide an important guide to the early recognition of interesting characteristics.

The subject of assay [2] is NS1 murine myeloma cell line. As to the kind of experiment: CyTOX (Cy) chromogenic cytotoxicity bioassay. Format: cell-based. The conditions noted are these: for Cy LD99: weight of chemical in last well with activity, real value may be lower. The source says:
CyTOX (alternatively referred to herein as Cy) is a microtitre plate bioassay use to identify potential antitumour actives. CyTOX is a chromogenic bioassay with broad application to a wide range of tumour and non-tumour cell lines.
CyTOX features a liquid media into which the test compound has been incorporated together with a novel chromogen. As the cells grow and divide the chromogen is metabolised from purple in a single step process to a colourless metabolite. CyTOX was undertaken using NS1 murine myeloma cell line as a guide to mammalian cell toxicity.
Briefly, in CyTOX the cells were applied to the media containing the test chemical and allowed to grow for 72 hours. The assay was monitored at 24, 48 and 72 hours and the active wells identified.

Another assay has as its system human melanoma MM418c5. As to the kind of experiment: Growth inhibition of cultured cells. It counts as cell-based. As for the experimental part: as §1, §2
The next assay has as its system human prostate DU145. As to the kind of experiment: Growth inhibition of cultured cells. Format: cell-based. The method, then:
as §1, §2

For another assay, the system named is MCF-7. The assay is described as follows: Cell scattering of cultured cells. It counts as cell-based, human.
The subject of a further assay is MM96L cell line. As to the kind of experiment: Changes in morphology of cultured cells. It counts as cell-based, human.
Assay [3] deals with K562 leukemia, MCF-7 breast cancer, Colo-205 colon cancer and D04 and SKMel-5 melanoma. The assay is described as follows: In vitro growth inhibition profile, sensitive versus other cell lines. Format: cell-based, human. The method, then:
In addition, scattering of MCF-7 and HT-29 colon tumour cells was observed, typical of PKC activators. […] Additionally, given their similarity in structure, EBI-47, EBI-59 and EBI-61 are also considered to be protein kinase C activators.
as §3, with “dose. […]” for “dose.”

Setting [4] is: weight of chemical in last well with activity, real value may be lower.

“Also recorded” adds a separate entry of the source.

Consider `CCC(C)C(=O)OC1C(C)C2(O)C(C3OC3(CO)C(O)C3(O)C(=O)C(C)=CC32)C2C(C)(C)C12OC(=O)C(C)CC` (centres unmarked) [EBI-47, 12,13-di-(2-methylbutanoyl)-6,7-epoxy-4,5,9,12,13,20-hexahydroxy-tigliaen-3-one], for which the “Tr Titre” value in the assay with Trichophyton rubrum was 0/—. For the same compound, the “DipH (no hatching of flies)” value with fly eggs was “P”. In addition, the PKC activity entry with PKC is listed as “yes”. Besides, in the assay on Giardia spp., the “Gi Titre” value is reported as 2. Also, in the assay with Giardia spp. (setting [4]), the “Gi LD99” value came to 31 µg/mL. For the same compound, the “Concentration of EB548.LA4.61-29/32 At which growth inhibition was observed” value in assay [1] was “None observed at 10 μg/mL”; in the assay with human breast MCF-7, 0.03 µg/mL; in the assay with human leukemia K562, 0.1 µg/mL; in the assay with human melanoma MM418c5, 0.03 µg/mL; in the assay on human prostate DU145, 10 µg/mL. Moreover, the “Ne Titre” value in the assay on Haemonchus contortus is on record as 2. Moreover, the “Ne LD99” value in the assay with Haemonchus contortus (setting [4]) was 31 µg/mL. The “Bs Titre” value with Bacillus subtilis is reported as 0/—. For the same compound, the “Cy Titre” value in [2] is 4. Further, the “Cy LD99” value in assay [2] was 16 µg/mL.
Regarding `CCCCC/C=C/C=C/C=C/C(=O)OC1C(C)C2(O)C(C3OC3(CO)C(O)C3(O)C(=O)C(C)=CC32)C2C(C)(C)C12OC(=O)C(C)CC` (centres unmarked) [EBI-59, 12-(dodeca-2,4,6-trienoyl)-13-(2-methylbutanoyl)-6,7-epoxy-4,5,9,12,13,20-hexahydroxy-1-tigliaen-3-one], in the assay with Trichophyton rubrum, the “Tr Titre” value was 0/—. In the assay on fly eggs, the “DipH (no hatching of flies)” value is on record as “A/A” and the “DipP (no pupae formation)” value is given as “A/A”. Further, the PKC activity result with PKC is “yes”. The “Ne Titre” value in the assay on Haemonchus contortus is 0/—. Further, the “Bs Titre” value in the assay with Bacillus subtilis is recorded as 0/—. For the same compound, in [2], the “Cy Titre” value was found to be 16 and the “Cy LD99” value is 3.9 µg/mL.
Turning to “tetradecanoyl phorbol acetate [TPA, reference compound]”, in the assay with MCF-7, the “scattering of MCF-7 cells” value was “scattering”. Also, the “change in morphology of MM96L cells” value in the assay with MM96L cell line is given as “characteristic change to bipolar morphology; also recorded: extreme bipolar morphology”. The “growth-inhibiting doses in sensitive cell lines lower than for other human tumour cell lines and normal human fibroblasts” value in assay [3] is recorded as “approximately 100 fold”.
